Literature values as cited in US20020111657A1, “Method of controlling body temperature while reducing shivering” (priority 2001, published 2002).

Tested on: shivering threshold
Conditions: patients at normal temperature warmed until sweating then cooled until shivering; Talke, et al., Anesthesiology 87(4):835-841, 1997

SMILES: Clc1cccc(Cl)c1N=C1NCCN1 [clonidine]
- effect on shivering threshold: able to lower the shivering threshold

SMILES: Cc1cccc([C@H](C)c2cnc[nH]2)c1C [dexmedetomidine]
- effect on shivering threshold: able to lower the shivering threshold
